Earlier results on 2 compounds are cited in US20180161299A1, “ESSENTIAL NUTRIENTS AND RELATED METHODS” (Balchem Corporation, priority 2016, published 2018).

For data set [1] the following is noted: pregnant women, choline intake increased from 480 mg to 930 mg.

In the case of cobalamin [Vitamin B12], the “increase in the amount of B12 analogues present in the GI tract and in the circulation” value (large oral and systemic doses of B12) was “more than 10 fold”. Also, the “vitamin B12 absorbed by diffusion from the gastrointestinal tract” value (large oral doses (500 μg to 5000 μg)) is “less than 1%”. For the setting “typical oral vitamin B12 supplementations”, the “vitamin B12 absorbed” value is listed as “less than 1%”.
For the compound `C[N+](C)(C)CCO` [choline, N,N,N-trimethylethanolammonium cation], the “choline excreted in the urine” value in data set [1] was “little, if any”.
